ChEMBL document CHEMBL5500389, “Discovery of the Selective and Orally Available Galectin-1 Inhibitor GB1908 as a Potential Treatment for Lung Cancer” (J Med Chem, 2024)

How the values were obtained:
[1] = Efflux ratio of apparent permeability across apical to basal side over basal to apical side in human Caco-2 cells at 10 uM incubated for 90 mins by LC-MS/MS analysis
[2] = Apparent permeability across apical to basal side in human Caco-2 cells at 10 uM incubated for 90 mins by LC-MS/MS analysis
[3] = Apparent permeability across basal to apical side in human Caco-2 cells at 10 uM incubated for 90 mins by LC-MS/MS analysis
Galectin-1 [4] = target: T1, Galectin-1 (Homo sapiens, UniProt P09382); assay: Binding affinity to human galectin-1 assessed as dissociation constant by fluorescein probe based fluorescence polarization assay
T1 sequence (P09382 whole entry): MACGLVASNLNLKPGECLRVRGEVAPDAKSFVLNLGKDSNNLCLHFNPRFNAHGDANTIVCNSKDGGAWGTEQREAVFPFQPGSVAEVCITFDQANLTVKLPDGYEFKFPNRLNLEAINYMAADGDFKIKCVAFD

physchem = settings: octanol/potassium phosphate buffer, pH 7.4
[5] = Unbound fraction in human plasma at 1 uM incubated for 5 hrs by equilibrium dialysis method; type: ADME, cell-free
[6] = Stability in mouse hepatocytes assessed as hepatic intrinsic clearance at 2 uM measured per million cells for 15 to 120 mins by LC-MS/MS analysis; type: ADME, cell-based, Hepatocyte; settings: time 15-120 min, read-out: CLH
Galectin-1 [7] = target: T2, Galectin-1 (Mus musculus, UniProt P16045); assay: Binding affinity to mouse galectin-1 assessed as dissociation constant by fluorescein probe based fluorescence polarization assay
T2 sequence (P16045 whole entry): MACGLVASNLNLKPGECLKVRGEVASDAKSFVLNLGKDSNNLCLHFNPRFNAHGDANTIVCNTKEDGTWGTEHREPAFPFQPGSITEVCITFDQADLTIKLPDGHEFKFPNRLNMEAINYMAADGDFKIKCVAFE

[8] = Stability in human hepatocytes assessed as hepatic intrinsic clearance at 2 uM measured per million cells for 15 to 120 mins by LC-MS/MS analysis; type: ADME, cell-based, Hepatocyte; settings: time 15-120 min, read-out: CLH
Galectin-1 [9] = target: T2, Galectin-1; assay: Binding affinity to mouse galectin-1 assessed as dissociation constant by competitive fluorescence polarization assay
Galectin-1 [10] = target: T1, Galectin-1; assay: Binding affinity to human galectin-1 assessed as dissociation constant by fluorescence polarization assay

| Compound | efflux ratio at 1.5 h, 10 µM [1] | Papp A→B at 1.5 h, 10 µM [2] [×10⁻⁶ cm/s] | Papp B→A at 1.5 h, 10 µM [3] [×10⁻⁶ cm/s] | Kd (Galectin-1 [4]) [nM] | logD at 1 h (physchem) | fraction unbound at 5 h, 1 µM [5] | hepatocyte CLint at 2 µM [6] [µL/min/1e6 cells] | Kd (Galectin-1 [7]) [nM] | hepatocyte CLint at 2 µM [8] [µL/min/1e6 cells] | Kd (Galectin-1 [9]) [nM] | Kd (Galectin-1 [10]) [nM] |
| --- | --- | --- | --- | --- | --- | --- | --- | --- | --- | --- | --- |
| OC[C@H]1O[C@H](Sc2cc(Cl)c(F)c(Cl)c2)[C@H](O)[C@@H](n2cc(-c3cscn3)nn2)[C@H]1O | 3.4 | 8.8 |  |  |  |  |  |  |  |  |  |
| CNc1nc(-c2cn([C@@H]3[C@@H](O)[C@@H](Sc4cc(Cl)c(F)c(Cl)c4)O[C@H](CO)[C@@H]3O)nn2)cs1 | > 192 | < 0.24 | 46 | 1360 | 2.9 |  |  |  |  |  |  |
| Nc1csc(-c2cn([C@@H]3[C@@H](O)[C@@H](Sc4cc(Cl)c(F)c(Cl)c4)O[C@H](CO)[C@@H]3O)nn2)n1 | 14 | 3.1 | 42 | 620 | 2.5 |  |  |  |  |  |  |
| O=C(N[C@H]1[C@@H](O)[C@@H](CO)O[C@@H](S[C@@H]2O[C@H](CO)[C@H](O)[C@H](n3cc(-c4csc(O)n4)nn3)[C@H]2O)[C@@H]1O)c1ccc2c(c1)C(=O)OC21c2ccc(O)cc2Oc2cc(O)ccc21 |  |  |  |  |  |  |  |  |  | 29 | 20 |
| COc1nc(-c2cn([C@@H]3[C@@H](O)[C@@H](Sc4cc(Cl)c(F)c(Cl)c4)O[C@H](CO)[C@@H]3O)nn2)cs1 | 5 | 12 | 61 | 1580 |  |  |  |  |  |  |  |

Further lines, results first:

| efflux ratio at 1.5 h, 10 µM [1] | Papp A→B at 1.5 h, 10 µM [2] [×10⁻⁶ cm/s] | Papp B→A at 1.5 h, 10 µM [3] [×10⁻⁶ cm/s] | Kd (Galectin-1 [4]) [nM] | logD at 1 h (physchem) | fraction unbound at 5 h, 1 µM [5] | hepatocyte CLint at 2 µM [6] [µL/min/1e6 cells] | Kd (Galectin-1 [7]) [nM] | hepatocyte CLint at 2 µM [8] [µL/min/1e6 cells] | Kd (Galectin-1 [9]) [nM] | Kd (Galectin-1 [10]) [nM] | Compound |
| --- | --- | --- | --- | --- | --- | --- | --- | --- | --- | --- | --- |
| > 23 | < 1.5 | 35 | 337 |  |  |  |  |  |  |  | OC[C@H]1O[C@H](Sc2ccc(Cl)c(Cl)c2)[C@H](O)[C@@H](n2cc(-c3csc(O)n3)nn2)[C@H]1O |
| 10 | 3.8 | 38 | 112 | 2.9 | 0.032 | < 1.5 | 99 | < 1.5 |  |  | CO[C@@H]1[C@@H](n2cc(-c3csc(N)n3)nn2)[C@@H](O)[C@@H](CO)O[C@@H]1Sc1ccc(Cl)c(Cl)c1 |
| 11 | 3.5 | 39 | 98 | 3 |  | 1.6 | 91 | 4.6 |  |  | CO[C@@H]1[C@@H](n2cc(-c3csc(N)n3)nn2)[C@@H](O)[C@@H](CO)O[C@@H]1Sc1cc(Cl)c(F)c(Cl)c1 |
